In PMC7954794, “Protein context shapes the specificity of SH3 domain-mediated interactions in vivo” (Nature Communications, 2021):

System: Abp1 PPIs
Test: DHFR-PCA of Abp1 SH3-swapped baits (Fig. 2B-D, S2C, S2F);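 as to Protein-protein interaction distance between Abp1 SH3-swapped baits, to ABP1: Euclidean distance between DHFR-PCA score profiles of the baits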;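 as to Protein-protein interaction distance between Abp1 SH3-swapped baits, to BEM1-2: Euclidean distance between DHFR-PCA score profiles of the baits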;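 as to Protein-protein interaction distance between Abp1 SH3-swapped baits, to BOI1: Euclidean distance between DHFR-PCA score profiles of the baits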;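 as to Protein-protein interaction distance between Abp1 SH3-swapped baits, to BZZ1-1: Euclidean distance between DHFR-PCA score profiles of the baits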
Type: cell-based, Saccharomyces cerevisiae
Conditions: for Protein-protein interaction distance between Abp1 SH3-swapped baits, to ABP1: Abp1 bait with swapped SH3, distance to bait with ABP1 SH3; for Protein-protein interaction distance between Abp1 SH3-swapped baits, to ABP1 / Protein-protein interaction distance between Abp1 SH3-swapped baits, to BBC1 / Protein-protein interaction distance between Abp1 SH3-swapped baits, to BEM1-1 / Protein-protein interaction distance between Abp1 SH3-swapped baits, to BEM1-2 / Protein-protein interaction distance between Abp1 SH3-swapped baits, to BOI1 / Protein-protein interaction distance between Abp1 SH3-swapped baits, to BOI2 / Protein-protein interaction distance between Abp1 SH3-swapped baits, to BUD14 / Protein-protein interaction distance between Abp1 SH3-swapped baits, to BZZ1-1 / Protein-protein interaction distance between Abp1 SH3-swapped baits, to BZZ1-2 / Protein-protein interaction distance between Abp1 SH3-swapped baits, to CDC25 / Protein-protein interaction distance between Abp1 SH3-swapped baits, to CTTN / Protein-protein interaction distance between Abp1 SH3-swapped baits, to CYK3 / Protein-protein interaction distance between Abp1 SH3-swapped baits, to DBNL / Protein-protein interaction distance between Abp1 SH3-swapped baits, to FUS1 / Protein-protein interaction distance between Abp1 SH3-swapped baits, to HCLS1 / Protein-protein interaction distance between Abp1 SH3-swapped baits, to HOF1 / Protein-protein interaction distance between Abp1 SH3-swapped baits, to HSE1 / Protein-protein interaction distance between Abp1 SH3-swapped baits, to LSB1 / Protein-protein interaction distance between Abp1 SH3-swapped baits, to LSB3 / Protein-protein interaction distance between Abp1 SH3-swapped baits, to MYO3 / Protein-protein interaction distance between Abp1 SH3-swapped baits, to MYO5 / Protein-protein interaction distance between Abp1 SH3-swapped baits, to NBP2 / Protein-protein interaction distance between Abp1 SH3-swapped baits, to PEX13 / Protein-protein interaction distance between Abp1 SH3-swapped baits, to PIN3 / Protein-protein interaction distance between Abp1 SH3-swapped baits, to RVS167 / Protein-protein interaction distance between Abp1 SH3-swapped baits, to SDC25 / Protein-protein interaction distance between Abp1 SH3-swapped baits, to SHO1 / Protein-protein interaction distance between Abp1 SH3-swapped baits, to SLA1-1 / Protein-protein interaction distance between Abp1 SH3-swapped baits, to SLA1-2 / Protein-protein interaction distance between Abp1 SH3-swapped baits, to SLA1-3 / Protein-protein interaction distance between Abp1 SH3-swapped baits, to YSC84: sheet Fig2C; for Protein-protein interaction distance between Abp1 SH3-swapped baits, to BBC1: distance to Abp1 bait with BBC1 SH3; for Protein-protein interaction distance between Abp1 SH3-swapped baits, to BEM1-1: distance to Abp1 bait with BEM1-1 SH3; for Protein-protein interaction distance between Abp1 SH3-swapped baits, to BEM1-2: distance to Abp1 bait with BEM1-2 SH3; for Protein-protein interaction distance between Abp1 SH3-swapped baits, to BOI1: distance to Abp1 bait with BOI1 SH3; for Protein-protein interaction distance between Abp1 SH3-swapped baits, to BOI2: distance to Abp1 bait with BOI2 SH3; for Protein-protein interaction distance between Abp1 SH3-swapped baits, to BUD14: distance to Abp1 bait with BUD14 SH3; for Protein-protein interaction distance between Abp1 SH3-swapped baits, to BZZ1-1: distance to Abp1 bait with BZZ1-1 SH3; for Protein-protein interaction distance between Abp1 SH3-swapped baits, to BZZ1-2: distance to Abp1 bait with BZZ1-2 SH3; for Protein-protein interaction distance between Abp1 SH3-swapped baits, to CDC25: distance to Abp1 bait with CDC25 SH3; for Protein-protein interaction distance between Abp1 SH3-swapped baits, to CTTN: distance to Abp1 bait with CTTN SH3; for Protein-protein interaction distance between Abp1 SH3-swapped baits, to CYK3: distance to Abp1 bait with CYK3 SH3; for Protein-protein interaction distance between Abp1 SH3-swapped baits, to DBNL: distance to Abp1 bait with DBNL SH3; for Protein-protein interaction distance between Abp1 SH3-swapped baits, to FUS1: distance to Abp1 bait with FUS1 SH3; for Protein-protein interaction distance between Abp1 SH3-swapped baits, to HCLS1: distance to Abp1 bait with HCLS1 SH3; for Protein-protein interaction distance between Abp1 SH3-swapped baits, to HOF1: distance to Abp1 bait with HOF1 SH3; for Protein-protein interaction distance between Abp1 SH3-swapped baits, to HSE1: distance to Abp1 bait with HSE1 SH3; for Protein-protein interaction distance between Abp1 SH3-swapped baits, to LSB1: distance to Abp1 bait with LSB1 SH3; for Protein-protein interaction distance between Abp1 SH3-swapped baits, to LSB3: distance to Abp1 bait with LSB3 SH3; for Protein-protein interaction distance between Abp1 SH3-swapped baits, to MYO3: distance to Abp1 bait with MYO3 SH3; for Protein-protein interaction distance between Abp1 SH3-swapped baits, to MYO5: distance to Abp1 bait with MYO5 SH3; for Protein-protein interaction distance between Abp1 SH3-swapped baits, to NBP2: distance to Abp1 bait with NBP2 SH3; for Protein-protein interaction distance between Abp1 SH3-swapped baits, to PEX13: distance to Abp1 bait with PEX13 SH3; for Protein-protein interaction distance between Abp1 SH3-swapped baits, to PIN3: distance to Abp1 bait with PIN3 SH3; for Protein-protein interaction distance between Abp1 SH3-swapped baits, to RVS167: distance to Abp1 bait with RVS167 SH3; for Protein-protein interaction distance between Abp1 SH3-swapped baits, to SDC25: distance to Abp1 bait with SDC25 SH3; for Protein-protein interaction distance between Abp1 SH3-swapped baits, to SHO1: distance to Abp1 bait with SHO1 SH3; for Protein-protein interaction distance between Abp1 SH3-swapped baits, to SLA1-1: distance to Abp1 bait with SLA1-1 SH3; for Protein-protein interaction distance between Abp1 SH3-swapped baits, to SLA1-2: distance to Abp1 bait with SLA1-2 SH3; for Protein-protein interaction distance between Abp1 SH3-swapped baits, to SLA1-3: distance to Abp1 bait with SLA1-3 SH3; for Protein-protein interaction distance between Abp1 SH3-swapped baits, to YSC84: distance to Abp1 bait with YSC84 SH3; for SH3-dependent PPIs gained by Abp1: DHFR-PCA
Description: Having determined that multiple PPIs require SH3s, we asked whether the latter establish PPI specificity independently from their host proteins by swapping domains (Fig. 2A). Using the second round of genome editing, we individually replaced Abp1 SH3 with the 27 yeast SH3s and 3 human Abp1 orthologs’ SH3s (CTTN, HCLS1, and DBNL, Fig. 2B). The reintroduction of its own SH3 (Abp1SH3 in Abp1) reconstitutes almost perfectly Abp1’s interaction profile (Kendall’s τ = 0.93, Fig. 2B). […] No homologous SH3 domain fully re-establishes the normal Abp1 PPI profile (Fig. 2B and Supplementary Fig. 2C). However, we observe a significant correlation (cophenetic correlation = 0.20, p value = 0.005, Fig. 2C) between the similarity of PPI profiles (Fig. 2B) and the sequence similarity of the SH3s. […] Nonetheless, a subset of SH3-dependent PPIs is only observed with the endogenous domain. For instance, Hua2 and App1, both well-characterized partners of Abp1[14],[18],[19], are only detected when Abp1 contains its own SH3 (WT or swapped via editing). A given SH3 may therefore not be fully replaceable with other paralogous or orthologous domains. This pattern is confirmed by cellular growth phenotypic analyses (Supplementary Fig. 2D, E). PPIs, SH3 sequence similarity, and growth profiles under stress conditions are correlated (Supplementary Fig. 2D, E). This relationship is particularly clear when analyzing growth on media supplemented with hygromycin.
The stuffing of YSC84 SH3 rendered the strain sterile and was therefore not used for this study as the assays require crosses. For genes containing two SH3s (BZZ1 and BEM1), a combination of this first stuffer with a second one ([…]) coding for a highly similar linker ([…]) was used, which allowed targeting each SH3 position independently. The two N-terminal domains of SLA1, which are separated by six nucleotides, were stuffed by a single stuffer. Cells containing pCAS were selected via the G418 resistance cassette from the plasmid on YPD plates (YPD + NAT 100 μg/ml (DHFR F[1,2] selection) + G418 200 µg/mL (Bioshop Canada)). Colonies were randomly selected and grown in YPD media without G418 to allow plasmid loss. The correct insertion of the stuffer was validated by PCR and Sanger sequencing. The SH3-swapped, -shuffled, and -mutated strains were constructed following a second CRISPR–Cas9 editing step with the same procedures. The stuffer sequences were targeted by specific gRNAs (one gRNA per stuffer) and replaced by PCR amplified specific SH3 (with 40 bp homology arms) or libraries of mutated SH3 domains for Deep Mutational Scanning (DMS) with 78 bp flanking homology regions. Validation of the SH3 domain insertions was done as we previously described except for DMS libraries (see below).
The overall DHFR-PCA pipeline is based on Tarassov et al.[43] and the procedures have also been published as a visualized protocol. The screens were performed with robotically manipulated pin tools (BM5-SC1, S&P Robotics Inc.). First, the preys were cherry-picked from 96-well plates to omnitrays in a 384 format on YPD + HPH solid media. Plates were then combined into the 1536 format on YPD + HPH. The array was constituted of 575 preys previously shown to interact physically with at least one SH3-containing protein as reported in BioGRID V3.4.16 along with 40 negative controls. The prey array comprised a border of control strains of two rows and two columns corresponding to the PPI between LSM8-DHFR F[1,2] and CDC39-DHFR F[3]. This double border was used to remove border effects. Preys are present in duplicate at a randomized position in the 1536 array (except for YAL041W which is present four times per array). Baits were crossed with two prey plates, resulting in four independent bait–prey tests for each PPI. Baits were grown in liquid YPD + NAT and then transferred on solid YPD + NAT omnitrays. They were then replicated on YPD + NAT omnitrays in 1536 array format. […]

[1] = number of PPIs, difference, Abp1 SH3-swapped with the listed SH3, Fig2D,S2F
[2] = number of PPIs, Abp1 SH3-swapped with the listed SH3, Fig2D,S2F
[3] = Fig2B, bait ABP1, label = prey, Replicates 4

Substance	Protein-protein interaction distance between Abp1 SH3-swapped baits, to ABP1	Protein-protein interaction distance between Abp1 SH3-swapped baits, to BBC1	Protein-protein interaction distance between Abp1 SH3-swapped baits, to BEM1-1	Protein-protein interaction distance between Abp1 SH3-swapped baits, to BEM1-2	Protein-protein interaction distance between Abp1 SH3-swapped baits, to BOI1	Protein-protein interaction distance between Abp1 SH3-swapped baits, to BOI2	Protein-protein interaction distance between Abp1 SH3-swapped baits, to BUD14	Protein-protein interaction distance between Abp1 SH3-swapped baits, to BZZ1-1	Protein-protein interaction distance between Abp1 SH3-swapped baits, to BZZ1-2	Protein-protein interaction distance between Abp1 SH3-swapped baits, to CDC25	Protein-protein interaction distance between Abp1 SH3-swapped baits, to CTTN	Protein-protein interaction distance between Abp1 SH3-swapped baits, to CYK3	Protein-protein interaction distance between Abp1 SH3-swapped baits, to DBNL	Protein-protein interaction distance between Abp1 SH3-swapped baits, to FUS1	Protein-protein interaction distance between Abp1 SH3-swapped baits, to HCLS1	Protein-protein interaction distance between Abp1 SH3-swapped baits, to HOF1	Protein-protein interaction distance between Abp1 SH3-swapped baits, to HSE1	Protein-protein interaction distance between Abp1 SH3-swapped baits, to LSB1	Protein-protein interaction distance between Abp1 SH3-swapped baits, to LSB3	Protein-protein interaction distance between Abp1 SH3-swapped baits, to MYO3	other results
CDC25	26.13	24.45	16.86	13.04	21	19.43	15.51	25.36	21.74	0.00	20.74	5.497	24.44	14.2	27.89	10.42	24.19	30.85	30.47	29.41	Protein-protein interaction distance between Abp1 SH3-swapped baits, to MYO5: 28.8; Protein-protein interaction distance between Abp1 SH3-swapped baits, to NBP2: 15.13; Protein-protein interaction distance between Abp1 SH3-swapped baits, to PEX13: 29.16; Protein-protein interaction distance between Abp1 SH3-swapped baits, to PIN3: 28.09; Protein-protein interaction distance between Abp1 SH3-swapped baits, to RVS167: 27.4; Protein-protein interaction distance between Abp1 SH3-swapped baits, to SDC25: 14.8; Protein-protein interaction distance between Abp1 SH3-swapped baits, to SHO1: 24.02; Protein-protein interaction distance between Abp1 SH3-swapped baits, to SLA1-1: 7.329; Protein-protein interaction distance between Abp1 SH3-swapped baits, to SLA1-2: 13.18; Protein-protein interaction distance between Abp1 SH3-swapped baits, to SLA1-3: 30.95; Protein-protein interaction distance between Abp1 SH3-swapped baits, to YSC84: 30.76; SH3-dependent PPIs - SH3-dependent PPIs gained by Abp1 [1]: 3; SH3-dependent PPIs gained by Abp1 [2]: 0
RVS167	9.548	9.304	14.67	33.63	11.58	15.22	18.02	5.914	11.17	27.4	12.4	28.09	5.554	19.5	7.638	32.19	7.315	7.392	7.852	9.049	Protein-protein interaction distance between Abp1 SH3-swapped baits, to MYO5: 7.689; Protein-protein interaction distance between Abp1 SH3-swapped baits, to NBP2: 17.22; Protein-protein interaction distance between Abp1 SH3-swapped baits, to PEX13: 4.587; Protein-protein interaction distance between Abp1 SH3-swapped baits, to PIN3: 5.294; Protein-protein interaction distance between Abp1 SH3-swapped baits, to RVS167: 0.00; Protein-protein interaction distance between Abp1 SH3-swapped baits, to SDC25: 34.37; Protein-protein interaction distance between Abp1 SH3-swapped baits, to SHO1: 6.815; Protein-protein interaction distance between Abp1 SH3-swapped baits, to SLA1-1: 30.09; Protein-protein interaction distance between Abp1 SH3-swapped baits, to SLA1-2: 19.9; Protein-protein interaction distance between Abp1 SH3-swapped baits, to SLA1-3: 7.698; Protein-protein interaction distance between Abp1 SH3-swapped baits, to YSC84: 8.283; PPIs gained by Abp1 - SH3-dependent PPIs gained by Abp1 [1]: 9; SH3-dependent PPIs - SH3-dependent PPIs gained by Abp1 [1]: 26; SH3-dependent PPIs gained by Abp1 [2]: 5
YAL005C	–	–	–	–	–	–	–	–	–	–	–	–	–	–	–	–	–	–	–	–	medrep (log2 median colony size normalized to plate background) [3]: 5.43; medsize (median colony size) [3]: 6098
